Experimental data reported in patent US8952024B2, “Herbicidal pyrimidone derivatives” (E I du Pont de Nemours and Company, priority 2009, dated 2015).

What was measured:
Assay in all cases: Test D pre-/postemergence plant response
Assay type in all cases: in vivo
[1] = tested on: signalgrass (broadleaf signalgrass, Brachiaria platyphylla)
How it was run: (§1)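 Seeds were sown in a loam–sand blend and sprayed preemergence with compound in a non-phytotoxic solvent mixture containing surfactant; plants at 2–18 cm (1- to 4-leaf stage) received the same formulation postemergence. After 14 to 21 days in a greenhouse, injury was rated visually against untreated controls (0 = no effect, 100 = complete control).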

[2] = tested on: guineagrass (Panicum maximum)
How it was run: as §1

[3] = tested on: Russian thistle (Salsola kali)
How it was run: as §1

[4] = tested on: bermudagrass (Cynodon dactylon)
How it was run: as §1

[5] = tested on: prickly sida (Sida spinosa)
How it was run: as §1

[6] = tested on: nutsedge (purple nutsedge, Cyperus rotundus)
How it was run: as §1

kochia (Kochia scoparia) = tested on: kochia (Kochia scoparia)
How it was run: as §1

[7] = tested on: Surinam grass (Brachiaria decumbens)
How it was run: as §1

[8] = tested on: black mustard (Brassica nigra)
How it was run: as §1

[9] = tested on: sowthistle (common sowthistle, Sonchus oleraceous)
How it was run: as §1

[10] = tested on: purslane (common purslane, Portulaca oleracea)
How it was run: as §1

[11] = tested on: green foxtail (Setaria viridis)
How it was run: as §1

[12] = tested on: spanishneedles (Bidens bipinnata)
How it was run: as §1

[13] = tested on: itchgrass (Rottboellia cochinchinensis)
How it was run: as §1

[14] = tested on: bluegrass (annual bluegrass, Poa annua)
How it was run: as §1

[15] = tested on: dayflower (Virginia (VA) dayflower, Commelina virginica)
How it was run: as §1

[16] = tested on: goosegrass (Eleusine indica)
How it was run: as §1

[17] = tested on: morningglory (pitted morningglory, Ipomoea lacunosa)
How it was run: as §1

[18] = Postemergence, 31 g ai/ha, scale 0 to 100
[19] = Postemergence, 62 g ai/ha, scale 0 to 100 (0 no effect, 100 complete control)
[20] = Postemergence, 125 g ai/ha, scale 0 to 100 (0 no effect, 100 complete control)
[21] = Postemergence, 16 g ai/ha, scale 0 to 100
[22] = Preemergence, 16 g ai/ha, scale 0 to 100, 0 no effect, 100 complete control
[23] = Preemergence, 31 g ai/ha, scale 0 to 100 (0 no effect, 100 complete control)
[24] = Preemergence, 125 g ai/ha, scale 0 to 100
[25] = Preemergence, 62 g ai/ha, scale 0 to 100
[26] = Preemergence, rate not given, scale 0 to 100, 0 no effect, 100 complete control
[27] = Postemergence, 31 g ai/ha, scale 0 to 100 (0 no effect, 100 complete control)

COCCn1c(-c2cccc(C)c2)ncc(C(=O)C2=C(O)C3CCC(C3)C2=O)c1=O (centres unmarked) [Compound 233]
Plant response rating, Signalgrass [1, 18]: 5 | Plant response rating, Signalgrass [1, 19]: 25 | Plant response rating, Signalgrass [1, 20]: 35 | Plant response rating, Signalgrass [1, 21]: 0 | Plant response rating, Signalgrass [1, 22]: 0 | Plant response rating, Signalgrass [1, 23]: 0 | Plant response rating, Signalgrass [1, 24]: 35 | Plant response rating, Guineagrass [2, 18]: 30 | Plant response rating, Guineagrass [2, 19]: 40 | Plant response rating, Guineagrass [2, 20]: 50 | Plant response rating, Guineagrass [2, 21]: 20 | Plant response rating, Guineagrass [2, 22]: 0 | Plant response rating, Guineagrass [2, 23]: 0 | Plant response rating, Guineagrass [2, 25]: 0 | Plant response rating, Guineagrass [2, 24]: 0 | Plant response rating, Russian Thistle [3, 20]: 10 | Plant response rating, Russian Thistle [3, 21]: 0 | Plant response rating, Russian Thistle [3, 22]: 50 | Plant response rating, Russian Thistle [3, 23]: 65 | Plant response rating, Russian Thistle [3, 24]: 100 | Plant response rating, Russian Thistle [3, 26]: 75 | Plant response rating, Bermudagrass [4, 27]: 70 | Plant response rating, Bermudagrass [4, 19]: 70 | Plant response rating, Bermudagrass [4, 20]: 70 | Plant response rating, Bermudagrass [4, 21]: 70 | Plant response rating, Bermudagrass [4, 22]: 5 | Plant response rating, Bermudagrass [4, 23]: 5 | Plant response rating, Bermudagrass [4, 25]: 85 | Plant response rating, Bermudagrass [4, 24]: 85 | Plant response rating, Prickly Sida [5, 18]: 50 | Plant response rating, Prickly Sida [5, 19]: 50 | Plant response rating, Prickly Sida [5, 20]: 60 | Plant response rating, Prickly Sida [5, 21]: 30 | Plant response rating, Prickly Sida [5, 22]: 0 | Plant response rating, Prickly Sida [5, 23]: 0 | Plant response rating, Prickly Sida [5, 25]: 0 | Plant response rating, Prickly Sida [5, 24]: 70 | Plant response rating, Nutsedge, Purple [6, 18]: 0 | Plant response rating, Nutsedge, Purple [6, 19]: 0 | Plant response rating, Nutsedge, Purple [6, 20]: 0 | Plant response rating, Nutsedge, Purple [6, 21]: 0 | Plant response rating, Nutsedge, Purple [6, 22]: 0 | Plant response rating, Nutsedge, Purple [6, 23]: 0 | Plant response rating, Nutsedge, Purple [6, 25]: 0 | Plant response rating, Nutsedge, Purple [6, 24]: 5 | Plant response rating, Kochia (kochia (Kochia scoparia); [18]): 20 | Plant response rating, Kochia (kochia (Kochia scoparia); [19]): 30 | Plant response rating, Kochia (kochia (Kochia scoparia); [20]): 35 | Plant response rating, Kochia (kochia (Kochia scoparia); [21]): 10 | Plant response rating, Kochia (kochia (Kochia scoparia); [22]): 0 | Plant response rating, Kochia (kochia (Kochia scoparia); [23]): 0 | Plant response rating, Kochia (kochia (Kochia scoparia); [25]): 20 | Plant response rating, Kochia (kochia (Kochia scoparia); [24]): 80 | Plant response rating, Surinam Grass [7, 19]: 50 | Plant response rating, Surinam Grass [7, 20]: 60 | Plant response rating, Surinam Grass [7, 21]: 30 | Plant response rating, Surinam Grass [7, 22]: 0 | Plant response rating, Surinam Grass [7, 23]: 5 | Plant response rating, Surinam Grass [7, 24]: 100 | Plant response rating, Black Mustard [8, 27]: 50 | Plant response rating, Black Mustard [8, 19]: 50 | Plant response rating, Black Mustard [8, 20]: 100 | Plant response rating, Black Mustard [8, 21]: 20 | Plant response rating, Black Mustard [8, 22]: 0 | Plant response rating, Black Mustard [8, 23]: 0 | Plant response rating, Black Mustard [8, 25]: 20 | Plant response rating, Black Mustard [8, 24]: 65 | Plant response rating, Sowthistle [9, 18]: 100 | Plant response rating, Sowthistle [9, 20]: 100 | Plant response rating, Sowthistle [9, 21]: 90 | Plant response rating, Sowthistle [9, 22]: 0 | Plant response rating, Sowthistle [9, 23]: 50 | Plant response rating, Sowthistle [9, 24]: 100 | Plant response rating, Purslane [10, 18]: 30 | Plant response rating, Purslane [10, 19]: 30 | Plant response rating, Purslane [10, 20]: 40 | Plant response rating, Purslane [10, 21]: 30 | Plant response rating, Purslane [10, 22]: 0 | Plant response rating, Purslane [10, 23]: 0 | Plant response rating, Purslane [10, 25]: 100 | Plant response rating, Purslane [10, 24]: 100 | Plant response rating, Foxtail, Green [11, 18]: 10 | Plant response rating, Foxtail, Green [11, 19]: 30 | Plant response rating, Foxtail, Green [11, 20]: 35 | Plant response rating, Foxtail, Green [11, 21]: 5 | Plant response rating, Foxtail, Green [11, 22]: 0 | Plant response rating, Foxtail, Green [11, 23]: 0 | Plant response rating, Foxtail, Green [11, 25]: 0 | Plant response rating, Foxtail, Green [11, 24]: 0 | Plant response rating, Spanishneedles [12, 18]: 35 | Plant response rating, Spanishneedles [12, 19]: 50 | Plant response rating, Spanishneedles [12, 20]: 60 | Plant response rating, Spanishneedles [12, 21]: 35 | Plant response rating, Spanishneedles [12, 22]: 0 | Plant response rating, Spanishneedles [12, 23]: 50 | Plant response rating, Spanishneedles [12, 24]: 95 | Plant response rating, Spanishneedles [12, 26]: 85 | Plant response rating, Itchgrass [13, 18]: 65 | Plant response rating, Itchgrass [13, 19]: 70 | Plant response rating, Itchgrass [13, 20]: 80 | Plant response rating, Itchgrass [13, 21]: 50 | Plant response rating, Itchgrass [13, 22]: 0 | Plant response rating, Itchgrass [13, 23]: 0 | Plant response rating, Itchgrass [13, 25]: 0 | Plant response rating, Itchgrass [13, 24]: 20 | Plant response rating, Bluegrass [14, 27]: 0 | Plant response rating, Bluegrass [14, 19]: 0 | Plant response rating, Bluegrass [14, 20]: 0 | Plant response rating, Bluegrass [14, 21]: 0 | Plant response rating, Bluegrass [14, 22]: 0 | Plant response rating, Bluegrass [14, 23]: 0 | Plant response rating, Bluegrass [14, 25]: 25 | Plant response rating, Bluegrass [14, 24]: 40 | Plant response rating, Dayflower, VA [15, 18]: 35 | Plant response rating, Dayflower, VA [15, 19]: 35 | Plant response rating, Dayflower, VA [15, 20]: 60 | Plant response rating, Dayflower, VA [15, 21]: 15 | Plant response rating, Dayflower, VA [15, 22]: 0 | Plant response rating, Dayflower, VA [15, 23]: 80 | Plant response rating, Dayflower, VA [15, 25]: 100 | Plant response rating, Dayflower, VA [15, 24]: 100 | Plant response rating, Goosegrass [16, 18]: 50 | Plant response rating, Goosegrass [16, 19]: 60 | Plant response rating, Goosegrass [16, 20]: 65 | Plant response rating, Goosegrass [16, 21]: 40 | Plant response rating, Goosegrass [16, 22]: 70 | Plant response rating, Goosegrass [16, 23]: 95 | Plant response rating, Goosegrass [16, 25]: 98 | Plant response rating, Goosegrass [16, 24]: 100 | Plant response rating, Morningglory [17, 18]: 60 | Plant response rating, Morningglory [17, 19]: 70 | Plant response rating, Morningglory [17, 20]: 70 | Plant response rating, Morningglory [17, 21]: 50 | Plant response rating, Morningglory [17, 22]: 0 | Plant response rating, Morningglory [17, 23]: 80 | Plant response rating, Morningglory [17, 25]: 95 | Plant response rating, Morningglory [17, 24]: 95
